Where “and” joins values, the source holds several entries; their conditions need not be identical. Identical values can stand only once.
Tests used:
[1] = in water at a concentration equivalent to 10 mg/mL of LLL12
[2] = tested on: bone marrow cells from wildtype C57BL/6 mice (M-MDSCs, dendritic cells); format: cell-based; conditions: 72 h, KR158 glioma conditioned media
[3] = cited from earlier work
[4] = molecular target: STAT3; experiment: pSTAT3 inhibition IC50, STAT3 luciferase reporter assay; format: cell-based, human; conditions: THP-1STAT3-Luc cells, 72 h treatment, then IL-6 stimulation 5 h, luminescence
[5] = tested on: THP-1STAT3-Luc cells; conditions: 72 h, concentration beyond 1.23 μg/mL

NS(=O)(=O)c1cccc2c1C(=O)c1cccc(O)c1C2=O [LLL12]
Water solubility (visual) [1]: poorly soluble | Ly6C+ M-MDSC population compared to vehicle control ([2]; 0.4 μg/mL and 0.04 μg/mL): statistically significant reduction | CD86+ cells (APC activation) ([2]; 0.004-0.4 μg/mL): dose-dependent increase | CD11c expression (CD11c+ cells) compared to vehicle ([2]; highest concentration (0.4 μM)): statistically significant increase | LogP [3]: 2.596 | IC50 of STAT3 inhibition [4]: 0.31 ± 0.05 µg/mL and 0.307 µg/mL | Cell death [5]: ~100%
